Key:
Test in all cases: GAL4 chimeric NHR cross-reactivity assay
Format in all cases: cell-based
Conditions in all cases: 10 μM
[1] = molecular target: T1, hVDR (Homo sapiens, UniProt P11473)
T1 construct: expressed in transfected cells; host or cells: CV-1 (monkey)
T1 sequence (P11473 127-423 limits assumed): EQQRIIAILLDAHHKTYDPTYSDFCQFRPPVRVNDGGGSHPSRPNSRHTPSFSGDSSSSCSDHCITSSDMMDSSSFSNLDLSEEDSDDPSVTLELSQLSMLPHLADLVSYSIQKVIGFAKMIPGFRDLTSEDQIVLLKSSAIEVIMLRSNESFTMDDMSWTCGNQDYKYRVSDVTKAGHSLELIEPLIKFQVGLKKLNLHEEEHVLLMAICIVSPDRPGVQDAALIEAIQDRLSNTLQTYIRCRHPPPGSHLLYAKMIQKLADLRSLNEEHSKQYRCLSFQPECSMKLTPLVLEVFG
Protocol: (§1) FIGS. 3A-3E collectively show the results of ligand activation of CV-1 cells co-transfected with a luciferase reporter gene with a variety of receptor expression constructs. […] FIGS. 3C-3E show the results of CV-1 cells transiently transfected with the indicated reporter constructs, treated with either DMSO or 10 μM of the compounds fexaramine (3C), fexarine (3D), fexarene (3E). Reporter activity was normalized to the internal control and the data plotted as fold activation relative to untreated cells. All transfections contained CMX-βgal as an internal control.
(§2) The expression plasmids pCMX, pCMX-LacZ, pCMX-mFXRFL, pCMX-hRXRFL, pCMX-GALDBD-rFXRLBD and other pCUX-GALDBD-NR LBDs (hRXRα, hPPARαγδ, mPXR, hPXR, hLXRα, HTRβ, hRARβ, mCAR, mERR3 and hVDR) have been described elsewhere (Blumberg et al. (1998). SXR, a novel steroid and xenobiotic-sensing nuclear receptor. Genes Dev. 12(20), 3195-205). The reporter plasmids pMH2004-TK-luc, pTKECRE*6-luc, pTKER-8*2-luc and pMRP-2-luc also have been described elsewhere. The hPLTP-luc promoter was kindly provided by Dr Dennis Dowhan and the hIBABP-luc promoter was created from a plasmid provided by Dr Philippe Besnard.
(§3) Cell-based transcriptional activation assays using chimeric nuclear hormone receptor (NHR) constructs were established to measure the selectivity of the compounds to FXR relative to other NHRs (Forman et al. (1995). Identification of a nuclear receptor that is activated by farnesol metabolites. Cell 81, 687-693). These assays used fusion proteins with the yeast GAL4 DNA binding domain connected to the ligand-binding domain (LBD) of NHRs. These constructs were co-transfected with a thymidine kinase C minimal promoter reporter vector containing four copies of the GAL4 binding site. Titration experiments were then performed using the identified compounds. […] Addition of RXR had no effect on the activation potential of fexaramine, fexarine, fexarene in this assay.
(§4) No activity was observed on other chimeric NHR constructs including hRXRα, hPPARαγδ, mPXR, hPXR, hLXRα, hTRβ, hRARβ, mCAR, mERR3 and hVDR (see FIGS. 3C-3E).

[2] = molecular target: T2, mCAR (Mus musculus, UniProt O35627)
T2 construct: expressed in transfected cells; host or cells: CV-1 (monkey)
T2 sequence (O35627 119-358 limits assumed): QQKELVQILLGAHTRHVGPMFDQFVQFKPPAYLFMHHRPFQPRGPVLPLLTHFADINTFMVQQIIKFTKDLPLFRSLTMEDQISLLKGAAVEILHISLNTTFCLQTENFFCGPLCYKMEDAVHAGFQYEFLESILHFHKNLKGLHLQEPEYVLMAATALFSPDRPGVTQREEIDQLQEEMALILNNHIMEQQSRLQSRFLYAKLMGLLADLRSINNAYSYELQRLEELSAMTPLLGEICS
Protocol: as §1, §2, §3, §4

[3] = molecular target: T3, mERR3 (Mus musculus, UniProt P62509)
T3 construct: expressed in transfected cells; host or cells: CV-1 (monkey)
T3 sequence (P62509 233-457 limits assumed): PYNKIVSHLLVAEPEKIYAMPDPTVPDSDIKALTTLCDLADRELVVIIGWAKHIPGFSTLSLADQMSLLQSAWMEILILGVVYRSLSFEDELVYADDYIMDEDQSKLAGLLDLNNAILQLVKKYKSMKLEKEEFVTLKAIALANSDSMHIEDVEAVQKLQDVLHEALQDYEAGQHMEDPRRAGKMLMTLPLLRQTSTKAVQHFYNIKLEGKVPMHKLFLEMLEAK
Protocol: as §1, §2, §3, §4

[4] = molecular target: T4, mPXR (Mus musculus, UniProt O54915)
T4 construct: expressed in transfected cells; host or cells: CV-1 (monkey)
T4 sequence (O54915 143-430 limits assumed): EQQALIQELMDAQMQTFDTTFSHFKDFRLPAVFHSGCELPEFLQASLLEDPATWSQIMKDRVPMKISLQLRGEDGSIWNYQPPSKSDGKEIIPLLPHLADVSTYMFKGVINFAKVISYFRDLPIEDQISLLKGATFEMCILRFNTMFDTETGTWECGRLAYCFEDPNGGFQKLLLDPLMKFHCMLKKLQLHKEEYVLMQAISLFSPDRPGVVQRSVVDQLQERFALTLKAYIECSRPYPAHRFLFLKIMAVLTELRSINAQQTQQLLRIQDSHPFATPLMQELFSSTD
Protocol: as §1, §2, §3, §4

[5] = molecular target: T5, hRXRα (Homo sapiens, UniProt P19793)
T5 construct: expressed in transfected cells; host or cells: CV-1 (monkey)
T5 sequence (P19793 227-458 limits assumed): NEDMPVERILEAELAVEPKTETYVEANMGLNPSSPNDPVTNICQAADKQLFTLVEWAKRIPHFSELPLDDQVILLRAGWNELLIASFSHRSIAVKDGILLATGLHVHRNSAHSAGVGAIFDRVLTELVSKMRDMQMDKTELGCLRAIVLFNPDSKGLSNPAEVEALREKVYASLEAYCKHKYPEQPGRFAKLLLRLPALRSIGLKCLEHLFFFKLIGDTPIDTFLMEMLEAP
Protocol: as §1, §2, §3, §4

[6] = molecular target: T6, hLXRα (Homo sapiens, UniProt Q13133)
T6 construct: expressed in transfected cells; host or cells: CV-1 (monkey)
T6 sequence (Q13133 209-447 limits assumed): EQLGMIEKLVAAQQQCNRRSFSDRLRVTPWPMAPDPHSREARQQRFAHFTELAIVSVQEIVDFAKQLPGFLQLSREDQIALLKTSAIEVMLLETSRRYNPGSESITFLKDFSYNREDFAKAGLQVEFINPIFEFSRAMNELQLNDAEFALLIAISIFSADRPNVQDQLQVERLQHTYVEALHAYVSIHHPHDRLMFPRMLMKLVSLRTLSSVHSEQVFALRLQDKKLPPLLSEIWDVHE
Protocol: as §1, §2, §3, §4

[7] = molecular target: T7, hRARβ (Homo sapiens, UniProt P10826)
T7 construct: expressed in transfected cells; host or cells: CV-1 (monkey)
T7 sequence (P10826 183-417 limits assumed): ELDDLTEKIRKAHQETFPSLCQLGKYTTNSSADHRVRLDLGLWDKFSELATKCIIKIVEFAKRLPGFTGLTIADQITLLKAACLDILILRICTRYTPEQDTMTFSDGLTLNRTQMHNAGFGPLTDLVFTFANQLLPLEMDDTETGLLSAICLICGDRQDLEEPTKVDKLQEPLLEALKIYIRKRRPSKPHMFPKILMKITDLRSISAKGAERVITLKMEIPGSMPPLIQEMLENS
Protocol: as §1, §2, §3, §4

COC(=O)/C=C/c1cccc(N(Cc2ccc(-c3ccc(N(C)C)cc3)cc2)C(=O)C2CCCCC2)c1 [fexaramine]
No activity: activity on chimeric hVDR construct [1] | activity on chimeric mCAR construct [2] | activity on chimeric mERR3 construct [3] | activity on chimeric mPXR construct [4] | activity on chimeric hRXRα construct [5] | activity on chimeric hLXRα construct [6] | activity on chimeric hRARβ construct [7]

COC(=O)/C=C/c1cccc(N(Cc2ccc(/C=C/c3ccccc3)cc2)C(=O)C2CCCCC2)c1 [fexarene]
No activity: activity on chimeric hVDR construct [1] | activity on chimeric mCAR construct [2] | activity on chimeric mERR3 construct [3] | activity on chimeric mPXR construct [4] | activity on chimeric hRXRα construct [5] | activity on chimeric hLXRα construct [6] | activity on chimeric hRARβ construct [7]

COC(=O)/C=C/c1cccc(N(Cc2ccc(-c3ccc4c(c3)OCO4)cc2)C(=O)C2CCCCC2)c1 [fexarine]
No activity: activity on chimeric hVDR construct [1] | activity on chimeric mCAR construct [2] | activity on chimeric mERR3 construct [3] | activity on chimeric mPXR construct [4] | activity on chimeric hRXRα construct [5] | activity on chimeric hLXRα construct [6] | activity on chimeric hRARβ construct [7]

Source: US7647217B2, “Structure of the farnesoid X receptor ligand binding domain and methods of use therefor” (The Salk Institute for Biological Studies, priority 2002, dated 2010)
